Results published in article PMC12102759 (Protein Science : A Publication of the Protein Society, 2025).
Read-outs that look alike come from different tables or passages of the source.

Tested on: G3BP1 NFT2
Format: binding, human
Conditions: library DMS-CoV, bait G3BP1 NFT2, prey N, listed as aa = residue placed at this position, column sums to 1

APRITFGGPSDSTGSN G7P (APRITFPGPSDSTGSN)
DMS PSSM value, G (position 7) (peptide APRITFGGPSDSTGSN): 0

APRITFGGPSDSTGSN G8T (APRITFGTPSDSTGSN)
DMS PSSM value, G (position 8) (peptide APRITFGGPSDSTGSN): 0.001267

RNAPRITFGGPSDSTG G16R (RNAPRITFGGPSDSTR)
DMS PSSM value, G (position 16) (peptide RNAPRITFGGPSDSTG): 0

APRITFGGPSDSTGSN T5E (APRIEFGGPSDSTGSN)
DMS PSSM value, T (position 5) (peptide APRITFGGPSDSTGSN): 0.4512

RNAPRITFGGPSDSTG G10T (RNAPRITFGTPSDSTG)
DMS PSSM value, G (position 10) (peptide RNAPRITFGGPSDSTG): 0

APRITFGGPSDSTGSN G7Y (APRITFYGPSDSTGSN)
DMS PSSM value, G (position 7) (peptide APRITFGGPSDSTGSN): 0

APRITFGGPSDSTGSN S10W (APRITFGGPWDSTGSN)
DMS PSSM value, S (position 10) (peptide APRITFGGPSDSTGSN): 0

APRITFGGPSDSTGSN F6V (APRITVGGPSDSTGSN)
DMS PSSM value, F (position 6) (peptide APRITFGGPSDSTGSN): 0

RNAPRITFGGPSDSTG S14L (RNAPRITFGGPSDLTG)
DMS PSSM value, S (position 14) (peptide RNAPRITFGGPSDSTG): 0

APRITFGGPSDSTGSN T13D (APRITFGGPSDSDGSN)
DMS PSSM value, T (position 13) (peptide APRITFGGPSDSTGSN): 9.878e-5

RNAPRITFGGPSDSTG T15P (RNAPRITFGGPSDSPG)
DMS PSSM value, T (position 15) (peptide RNAPRITFGGPSDSTG): 0

RNAPRITFGGPSDSTG T7D (RNAPRIDFGGPSDSTG)
DMS PSSM value, T (position 7) (peptide RNAPRITFGGPSDSTG): 0

RNAPRITFGGPSDSTG T15A (RNAPRITFGGPSDSAG)
DMS PSSM value, T (position 15) (peptide RNAPRITFGGPSDSTG): 0

RNAPRITFGGPSDSTG T7P (RNAPRIPFGGPSDSTG)
DMS PSSM value, T (position 7) (peptide RNAPRITFGGPSDSTG): 0

RNAPRITFGGPSDSTG P4W (RNAWRITFGGPSDSTG)
DMS PSSM value, P (position 4) (peptide RNAPRITFGGPSDSTG): 0

RNAPRITFGGPSDSTG S12H (RNAPRITFGGPHDSTG)
DMS PSSM value, S (position 12) (peptide RNAPRITFGGPSDSTG): 0

RNAPRITFGGPSDSTG I6L (RNAPRLTFGGPSDSTG)
DMS PSSM value, I (position 6) (peptide RNAPRITFGGPSDSTG): 0.232

RNAPRITFGGPSDSTG R5M (RNAPMITFGGPSDSTG)
DMS PSSM value, R (position 5) (peptide RNAPRITFGGPSDSTG): 0.2004

RNAPRITFGGPSDSTG S12L (RNAPRITFGGPLDSTG)
DMS PSSM value, S (position 12) (peptide RNAPRITFGGPSDSTG): 0

APRITFGGPSDSTGSN A1I (IPRITFGGPSDSTGSN)
DMS PSSM value, A (position 1) (peptide APRITFGGPSDSTGSN): 0.004309

RNAPRITFGGPSDSTG G9V (RNAPRITFVGPSDSTG)
DMS PSSM value, G (position 9) (peptide RNAPRITFGGPSDSTG): 0

APRITFGGPSDSTGSN S12V (APRITFGGPSDVTGSN)
DMS PSSM value, S (position 12) (peptide APRITFGGPSDSTGSN): 0.04482

RNAPRITFGGPSDSTG A3Y (RNYPRITFGGPSDSTG)
DMS PSSM value, A (position 3) (peptide RNAPRITFGGPSDSTG): 0

RNAPRITFGGPSDSTG T15H (RNAPRITFGGPSDSHG)
DMS PSSM value, T (position 15) (peptide RNAPRITFGGPSDSTG): 0

RNAPRITFGGPSDSTG F8S (RNAPRITSGGPSDSTG)
DMS PSSM value, F (position 8) (peptide RNAPRITFGGPSDSTG): 0

RNAPRITFGGPSDSTG F8N (RNAPRITNGGPSDSTG)
DMS PSSM value, F (position 8) (peptide RNAPRITFGGPSDSTG): 0

RNAPRITFGGPSDSTG G16I (RNAPRITFGGPSDSTI)
DMS PSSM value, G (position 16) (peptide RNAPRITFGGPSDSTG): 0

RNAPRITFGGPSDSTG N2Y (RYAPRITFGGPSDSTG)
DMS PSSM value, N (position 2) (peptide RNAPRITFGGPSDSTG): 0

APRITFGGPSDSTGSN F6I (APRITIGGPSDSTGSN)
DMS PSSM value, F (position 6) (peptide APRITFGGPSDSTGSN): 0

APRITFGGPSDSTGSN G8H (APRITFGHPSDSTGSN)
DMS PSSM value, G (position 8) (peptide APRITFGGPSDSTGSN): 0

APRITFGGPSDSTGSN P2M (AMRITFGGPSDSTGSN)
DMS PSSM value, P (position 2) (peptide APRITFGGPSDSTGSN): 0

APRITFGGPSDSTGSN A1L (LPRITFGGPSDSTGSN)
DMS PSSM value, A (position 1) (peptide APRITFGGPSDSTGSN): 0.0004523

RNAPRITFGGPSDSTG P11W (RNAPRITFGGWSDSTG)
DMS PSSM value, P (position 11) (peptide RNAPRITFGGPSDSTG): 0

RNAPRITFGGPSDSTG N2S (RSAPRITFGGPSDSTG)
DMS PSSM value, N (position 2) (peptide RNAPRITFGGPSDSTG): 0.05861

RNAPRITFGGPSDSTG R5H (RNAPHITFGGPSDSTG)
DMS PSSM value, R (position 5) (peptide RNAPRITFGGPSDSTG): 0.001007

RNAPRITFGGPSDSTG F8D (RNAPRITDGGPSDSTG)
DMS PSSM value, F (position 8) (peptide RNAPRITFGGPSDSTG): 0

RNAPRITFGGPSDSTG S12P (RNAPRITFGGPPDSTG)
DMS PSSM value, S (position 12) (peptide RNAPRITFGGPSDSTG): 0

RNAPRITFGGPSDSTG P11F (RNAPRITFGGFSDSTG)
DMS PSSM value, P (position 11) (peptide RNAPRITFGGPSDSTG): 0

APRITFGGPSDSTGSN D11G (APRITFGGPSGSTGSN)
DMS PSSM value, D (position 11) (peptide APRITFGGPSDSTGSN): 0

APRITFGGPSDSTGSN T13V (APRITFGGPSDSVGSN)
DMS PSSM value, T (position 13) (peptide APRITFGGPSDSTGSN): 0.7895

APRITFGGPSDSTGSN F6W (APRITWGGPSDSTGSN)
DMS PSSM value, F (position 6) (peptide APRITFGGPSDSTGSN): 0

APRITFGGPSDSTGSN I4M (APRMTFGGPSDSTGSN)
DMS PSSM value, I (position 4) (peptide APRITFGGPSDSTGSN): 0

APRITFGGPSDSTGSN S12F (APRITFGGPSDFTGSN)
DMS PSSM value, S (position 12) (peptide APRITFGGPSDSTGSN): 0.0072

APRITFGGPSDSTGSN G7I (APRITFIGPSDSTGSN)
DMS PSSM value, G (position 7) (peptide APRITFGGPSDSTGSN): 0

RNAPRITFGGPSDSTG S12T (RNAPRITFGGPTDSTG)
DMS PSSM value, S (position 12) (peptide RNAPRITFGGPSDSTG): 0

RNAPRITFGGPSDSTG S12K (RNAPRITFGGPKDSTG)
DMS PSSM value, S (position 12) (peptide RNAPRITFGGPSDSTG): 0

RNAPRITFGGPSDSTG G9R (RNAPRITFRGPSDSTG)
DMS PSSM value, G (position 9) (peptide RNAPRITFGGPSDSTG): 0

RNAPRITFGGPSDSTG T7Q (RNAPRIQFGGPSDSTG)
DMS PSSM value, T (position 7) (peptide RNAPRITFGGPSDSTG): 0

RNAPRITFGGPSDSTG G16L (RNAPRITFGGPSDSTL)
DMS PSSM value, G (position 16) (peptide RNAPRITFGGPSDSTG): 0

APRITFGGPSDSTGSN G8L (APRITFGLPSDSTGSN)
DMS PSSM value, G (position 8) (peptide APRITFGGPSDSTGSN): 0.0001736

APRITFGGPSDSTGSN T5S (APRISFGGPSDSTGSN)
DMS PSSM value, T (position 5) (peptide APRITFGGPSDSTGSN): 0.002921
